Laboratory results taken from patent US20030207843A1, “Treatment of drug-resistant human immunodeficiency virus infection” (priority 1999, published 2003).
Like-named read-outs stand apart in the source and are kept apart here.

What was measured:
Assay type in all cases: cell-based
HIV-1LAI S117T = experiment: p24 reduction assay in MT-2 cells, S117T
Description: (§1) Cells. MT-2 cells (AIDS Research and Reference Reagent Program, National Institute of Allergy and Infectious Diseases, National Institutes of Health) were maintained in RPMI 1640 supplemented with 10% fetal bovine serum (FBS; JRH Biosciences, Lenexa, Kans.), 10 mM HEPES buffer, 50 IU/ml penicillin and 50 μg/ml streptomycin.
(§2) Antiviral Susceptibility Assays. The antiviral activity of each compound was determined by inoculating MT-2 cells with HIV-1LAI at a multiplicity of infection (MOI) of 0.01 TCID50/cell, followed by incubation in the presence of three-fold serial drug dilutions (3 wells per dilution) (see Mellors, et. al., Antimicrob. Agents Chemother. 39:1087-1092). Five or seven days after infection, culture supernatants were harvested, lysed with 0.5% triton-X 100 and assayed for p24 antigen concentration using a commercial ELISA assay (DuPont, NEN Products, Wilmington, Del.). The antiviral activity of the compounds is expressed as the IC50, which is the concentration required to inhibit 50% of p24 antigen production. The fold-resistance of a test virus is calculated by dividing the IC50 of the test virus by the IC50 of the HIV-1LAI control virus.
(§3) Generation of Mutant Recombinant HIV-1. HIV-1 containing the desired mutations were generated by oligonucleotide directed mutagenesis (Altered Sites II, Promega) as previously described (Mellors, et. al., Molecular Pharm. 41:446-451). After mutagenesis, mutant RT was subcloned into the pxxHIV-1LAI cloning vector using the silent XmaI and XbaI restriction sites located at the 5′ and 3′ ends of RT. Clones were DNA sequenced to verify the presence of the desired mutation(s) and electroporated into MT-2 cells as described above to generate infectious mutant recombinant HIV-1.
(§4) Mutant RT was generated via oligonucleotide-directed mutagenesis and ligated into the pXXHIV-1LAI cloning vector. Cloning was facilitated by the presence of two silent restriction sites at the 5′ and 3′ ends (Xma1 and Xba1, respectively) of pXXHIV-1LAI RT. Infectious mutant recombinant HIV-1 was generated by electroporating MT-2 cells with mutated pXXHIV-1LAI clones. The presence of the desired mutations was verified by DNA sequencing.
DNA sequencing identified two mutations in RT: S117T and L214F.
(§5) Recombinant viruses containing the mutations selected by invention compounds were also evaluated for their susceptibility to AZT, as shown in Table 8.

HIV-1LAI W88G/L214F = experiment: p24 reduction assay in MT-2 cells, W88G/L214F
Description: as §1, §2, §3, §4
EB-PFA resistant virus was selected a second time after 15 passages. This virus also contained the mutations W88G and L214F.
as §5

HIV-1LAI W88G = experiment: p24 reduction assay in MT-2 cells, W88G; conditions: for EC50: W88G
Description: as §1, §2, §3, §4
(§6) Invention compounds were also evaluated against a panel of HIV-1LAI derived recombinants resistant to PFA and the PFA invention compounds, as shown in Table 7.

HIV-1LAI M164I/L214F = experiment: p24 reduction assay in MT-2 cells, M164I/L214F
Description: as §1, §2, §3, §4
DNA sequencing of the RT gene (amino acid (AA) 1 to 350) from MB-PFA resistant virus identified three mutations: V75L, M164I and L214F. Recombinant viruses encoding the V75L, M164I and L214F mutations were constructed and tested for susceptibility to MB-PFA.
as §5

HIV-1LAI 4XAZT/W88G = experiment: p24 reduction assay in MT-2 cells, 4XAZT/W88G
Description: as §1, §2, §3, §4, §6, §5

HIV-1LAI T215Y = experiment: p24 reduction assay in MT-2 cells, T215Y; conditions: Table 1, MOI 0.01
Description: as §1, §2, §3
(§7) Mutant RT was generated via oligonucleotide-directed mutagenesis and ligated into the pXXHIV-1LAI cloning vector. Cloning was facilitated by the presence of two silent restriction sites at the 5′ and 3′ ends (Xma1 and Xba1, respectively) of pXXHIV-1LAI RT. […]

HIV-1LAI K65R = experiment: p24 reduction assay in MT-2 cells, K65R; conditions: for EC50: K65R; for Fold-resistance: K65R relative to wild type virus
Description: as §1, §2, §3, §4
(§8) The multi-drug resistant HIV-1 strains, 11163p1 and 11588p1, are human clinical isolates having the RT mutations indicated. HIV-1 strains treated with the lipid analogs of the present invention include wild type, e.g., xxLAI, and the like, single mutation, e.g., xxLAI MI 84V (resistant to 3TC), xxLAI L74V (resistant to ddI and ddC), xxLAI K65R (resistant to ddI, ddC, DAPD, DXG, tenofovir, and adefovir), xxLAI T215Y (resistant to AZT), and the like, double mutations, e.g., xxLAI M41 L/T215Y (resistant to AZT), xxLAI MI 84V/T215Y (resistant to 3TC and AZT), and the like, and multiple mutations, e.g., xxLAI 4XAZT ((D67N, K70R, T215Y, K219Q) resistant to AZT)), xxLAI 4XAZT/M184V ((D67N, K70R, M 184V, T215Y, K219Q) resistant to AZT and 3TC), xxLAI M5456-12 (AZT+NNRTI resistant: D67N, K70R, K103N, T215Y), xxLAI G2-3g (AZT/3TC co-resistant: M41L, D67N, M184V, H208Y, L210W, R211K, L214F, T215Y, 1293V, E297A), 11163 (multinucleoside resistant virsus: M41L, A62V, V751, F77L, K103N, F116Y, Q151M, Y181C, M184V), 11588 (multinucleoside resistant virsus: A62V, K65R, K70R, V751, F77L, F116Y, Q151M, M184V, K219Q), and the like.

HIV-1LAI 4XAZT/K103N = experiment: p24 reduction assay in MT-2 cells, 4XAZT/K103N; conditions: for Fold-resistance: 4XAZT/K103N relative to wild type virus
Description: as §1, §2, §3, §4, §8

HIV-1LAI 4XAZT/Q161L = experiment: p24 reduction assay in MT-2 cells, 4XAZT/Q161L; conditions: Table 7; for EC50: 4XAZTQ161L; for Fold-resistance: 4XAZTQ161L relative to wild type virus
Description: as §1, §2, §3, §4, §6

HIV-1LAI M184V/T215Y = experiment: p24 reduction assay in MT-2 cells, M184V/T215Y; conditions: Table 1, MOI 0.01
Description: as §1, §2, §3, §7

HIV-1LAI 4XAZT/M184V = experiment: p24 reduction assay in MT-2 cells, 4XAZT/M184V; conditions: for Fold-resistance: 4XAZT/M184V relative to wild type virus
Description: as §1, §2, §3, §4, §8

[1] = Table 1, AZT/K103N, MOI 0.01, read-out: EC50
[2] = Table 5, 4XAZT/K103N, mean ± SD, read-out: EC50
[3] = Table 7, W88G relative to wild type virus
[4] = Table 1, 4xAZT/M184V, MOI 0.01, read-out: EC50
[5] = Table 5, 4XAZT/M184V, mean ± SD, read-out: EC50
[6] = Table 7, 4XAZTW88G, read-out: EC50

| Compound | EC50 (HIV-1LAI T215Y) [nM] | EC50 (HIV-1LAI K65R; Table 1, MOI 0.01) [nM] | Fold-resistance (HIV-1LAI K65R; Table 3) | EC50 (HIV-1LAI K65R; Table 3, mean ± SD) [nM] | EC50 (HIV-1LAI 4XAZT/K103N; [1]) [nM] | Fold-resistance (HIV-1LAI 4XAZT/K103N; Table 5) | EC50 (HIV-1LAI 4XAZT/K103N; [2]) [nM] | EC50 (HIV-1LAI 4XAZT/Q161L) [nM] | Fold-resistance (HIV-1LAI 4XAZT/Q161L) | Fold-resistance (HIV-1LAI W88G; [3]) | EC50 (HIV-1LAI W88G; Table 7, read-out: EC50) [nM] | EC50 (HIV-1LAI M184V/T215Y) [nM] | EC50 (HIV-1LAI 4XAZT/M184V; [4]) [nM] | Fold-resistance (HIV-1LAI 4XAZT/M184V; Table 5) | EC50 (HIV-1LAI 4XAZT/M184V; [5]) [nM] | EC50 (HIV-1LAI 4XAZT/W88G; [6]) [nM] | further results |
| --- | --- | --- | --- | --- | --- | --- | --- | --- | --- | --- | --- | --- | --- | --- | --- | --- | --- |
| Cc1cn([C@H]2C[C@H](N=[N+]=[N-])[C@@H](CO)O2)c(=O)[nH]c1=O [AZT, 3′-Azido-3′-deoxythymidine] |  |  |  |  |  |  |  |  |  |  |  |  |  |  |  |  | EC50 (HIV-1LAI S117T; Human immunodeficiency virus 1, MT2, Table 8, S117T, read-out: AZT EC50): 17 ± 7 nM; Fold resistance (HIV-1LAI S117T; Table 8, S117T relative to wild type virus): 0.8; EC50 (HIV-1LAI W88G/L214F; Human immunodeficiency virus 1, MT2, Table 8, W88G/L214F, read-out: AZT EC50): 15 ± 15 nM; Fold resistance (HIV-1LAI W88G/L214F; Table 8, W88G/L214F relative to wild type virus): 0.7; EC50 (HIV-1LAI W88G; Human immunodeficiency virus 1, MT2, Table 8, read-out: AZT EC50): 19 ± 13 nM; Fold resistance (HIV-1LAI W88G; Table 8, W88G relative to wild type virus): 0.9; EC50 (HIV-1LAI M164I/L214F; Human immunodeficiency virus 1, MT2, Table 8, M164I/L214F, read-out: AZT EC50): 8 ± 3 nM; Fold resistance (HIV-1LAI M164I/L214F; Table 8, M164I/L214F relative to wild type virus): 0.4; EC50 (HIV-1LAI 4XAZT/W88G; Human immunodeficiency virus 1, MT2, Table 8, W88G/4XAZT, read-out: AZT EC50): 60 ± 18 nM; Fold resistance (HIV-1LAI 4XAZT/W88G; Table 8, W88G/4XAZT relative to wild type virus): 1.5 |
| CCCCCCCCCCCCCCCCCCOC[C@@H](O)COP(=O)(O)C(=O)O [B-PFA, 1-O-octadecyl-sn-glycero-3-PFA] | 840 | 17700 | (8.2) | 14700 ± 6610 | 2720 | (2.2) | 3870 ± 2360 | 6640 | 2.10 (2.5) | (>17.2) | > 30000 | 1490 | 2290 | (1.3) | 2290 ± 1590 | 16400 |  |
| CCCCCCCCCCCCCCCCCCOC[C@H](COP(=O)(O)C(=O)O)OCC [EB-PFA, 1-O-octadecyl-2-O-ethyl-sn-glycero-3-PFA] | 140 | 3220 | (4.5) | 2910 ± 1300 | 800 | (1.4) | 880 ± 140 | 1180 |  | 0.64 (7.6) | 6800 | 480 | 580 | (0.9) | 560 ± 80 | 3310 | Fold resistance (HIV-1LAI W88G/L214F; Example 6, recombinant virus W88G plus L214F): 15.5 fold; EC50 (HIV-1LAI W88G/L214F; Example 6, recombinant virus W88G plus L214F, read-out: EC50): 9100 nM; Fold resistance (HIV-1LAI W88G; Example 6, recombinant virus encoding W88G): 9.4 fold |
| CCCCCCCCCCCCCCCCCCOC[C@H](COP(=O)(O)C(=O)O)OC [MB-PFA, 1-O-octadecyl-2-O-methyl-sn-glycero-3-PFA] | 270 | 1240 | (3.3) | 1660 ± 720 |  | (1.2) | 600 ± 380 | 1870 | 0.33 (2.2) | 4.42 (7.6) | 5880 | 540 | 480 | (1.2) | 590 ± 360 | 2460 | Fold resistance (HIV-1LAI M164I/L214F; Example 6, recombinant virus with M164I and L214F): 9.3 fold; EC50 (HIV-1LAI M164I/L214F; Example 6, recombinant virus with M164I and L214F, read-out: EC50): 8100 nM |
| O=C(O)P(=O)(O)O [PFA, phosphonoformate, reference compound] |  |  | (3.8) |  |  | (1.1) |  |  | 9.40 (2.3) | 14.28 (11.7) |  |  |  | (1.3) |  |  | Fold resistance (HIV-1LAI S117T; {}): 4.7 fold; EC50 (HIV-1LAI K65R; Human immunodeficiency virus 1, MT2, Table 1, MOI 0.01): 57300 nM; EC50 (HIV-1LAI K65R; Human immunodeficiency virus 1, MT2, Table 3, mean ± SD): 67000 ± 22800 nM; EC50 (HIV-1LAI 4XAZT/K103N; Human immunodeficiency virus 1, MT2, Table 1, AZT/K103N, MOI 0.01): 18600 nM; EC50 (HIV-1LAI 4XAZT/K103N; Human immunodeficiency virus 1, MT2, Table 5, 4XAZT/K103N, mean ± SD, read-out: EC50): 19200 ± 8850 nM; EC50 (HIV-1LAI 4XAZT/Q161L; Human immunodeficiency virus 1, MT2): 39900 nM; EC50 (HIV-1LAI W88G; Human immunodeficiency virus 1, MT2, Table 7, read-out: EC50): 152000 nM; Fold resistance (HIV-1LAI W88G; {}): 6.2 fold; EC50 (HIV-1LAI 4XAZT/M184V; Human immunodeficiency virus 1, MT2, Table 1, 4xAZT/M184V, MOI 0.01): 15700 nM; EC50 (HIV-1LAI 4XAZT/M184V; Human immunodeficiency virus 1, MT2, Table 5, 4XAZT/M184V, mean ± SD, read-out: EC50): 22700 ± 15800 nM; EC50 (HIV-1LAI 4XAZT/W88G; Human immunodeficiency virus 1, MT2, Table 7, 4XAZTW88G, read-out: EC50): 86200 nM |
